In ChEMBL document CHEMBL1201862, “PubChem BioAssay data set” (2004):
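Five concentrations, 48 hours, 96-well plates. GI50: concentration for 50% inhibition of growth.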 Active and inactive are the calls of the source. No stated cut-off is given here; in the data, active = GI50 up to about 1.1 µM and inactive = higher.

Experiments:
Experiment in all cases: NCI-60 cell line screen, 48 h
A498 = test system: A498
COLO 205 = test system: COLO 205
EKVX = test system: EKVX
HCC 2998 = test system: HCC 2998
HCT-116 = test system: HCT-116
HOP-62 = test system: HOP-62
K562 = test system: K562
M14 = test system: M14
MOLT-4 = test system: MOLT-4
NCI-H522 = test system: NCI-H522
OVCAR-4 = test system: OVCAR-4
OVCAR-5 = test system: OVCAR-5
SF-268 = test system: SF-268
SK-MEL-28 = test system: SK-MEL-28
SK-OV-3 = test system: SK-OV-3
SNB-19 = test system: SNB-19
SNB-75 = test system: SNB-75
SNB-78 = test system: SNB-78
U-251 = test system: U-251
SW-620 = test system: SW-620

| SMILES | GI50 (A498) | GI50 (COLO 205) | GI50 (EKVX) | GI50 (HCC 2998) | GI50 (HCT-116) | GI50 (HOP-62) | GI50 (K562) | GI50 (M14) | GI50 (MOLT-4) | GI50 (NCI-H522) | GI50 (OVCAR-4) | GI50 (OVCAR-5) | GI50 (SF-268) | GI50 (SK-MEL-28) | GI50 (SK-OV-3) | GI50 (SNB-19) | GI50 (SNB-75) | GI50 (SNB-78) | GI50 (U-251) | GI50 (SW-620) |
| --- | --- | --- | --- | --- | --- | --- | --- | --- | --- | --- | --- | --- | --- | --- | --- | --- | --- | --- | --- | --- |
| CC(C)C(=O)N1C(=O)O[C@@H](c2ccccc2)[C@H]1C | > 100 µM (inactive) | > 100 µM (inactive) | > 100 µM (inactive) | > 100 µM (inactive) | > 100 µM (inactive) | > 100 µM (inactive) | > 100 µM (inactive) | > 100 µM (inactive) | > 100 µM (inactive) | > 100 µM (inactive) | > 100 µM (inactive) | > 100 µM (inactive) | > 100 µM (inactive) | > 100 µM (inactive) | > 100 µM (inactive) | > 23.6 µM (inactive) | > 100 µM (inactive) | > 100 µM (inactive) | > 100 µM (inactive) | – |
| N#C[C@@H](c1nc2ccccc2s1)c1ncccc1[N+](=O)[O-] | 10.8 µM (inactive) | 4.31 µM (inactive) | 5.89 µM (inactive) | 10.6 µM (inactive) | 5.6 µM (inactive) | 10.4 µM (inactive) | > 10 µM (inactive) | 8.22 µM (inactive) | 9.12 µM (inactive) | 2.51 µM (inactive) | 7.91 µM (inactive) | 11.9 µM (inactive) | 8.11 µM (inactive) | > 10 µM (inactive) | 16.6 µM (inactive) | 3.94 µM (inactive) | 13.9 µM (inactive) | – | 3.48 µM (inactive) | > 10 µM (inactive) |
| COc1cc(C2c3cc4c(cc3[C@@H](Nc3cccc([N+](=O)[O-])c3)C3COC(=O)[C@H]23)OCO4)cc(OC)c1O (some centres undefined) | 1.46 µM (inactive) | 1.35 µM (inactive) | 3.56 µM (inactive) | 2.33 µM (inactive) | 1.99 µM (inactive) | 0.796 µM (active) | 2.94 µM (inactive) | – | 0.29 µM (active) | 2.83 µM (inactive) | 20.2 µM (inactive) | 2.16 µM (inactive) | 2.91 µM (inactive) | 5.36 µM (inactive) | 2.51 µM (inactive) | 2.5 µM (inactive) | 4.1 µM (inactive) | 5.66 µM (inactive) | 1.94 µM (inactive) | 2.28 µM (inactive) |
| O=S(O)c1cc(Cl)cc(Cl)c1OCc1ccccc1 | > 100 µM (inactive) | – | > 100 µM (inactive) | > 100 µM (inactive) | > 100 µM (inactive) | > 100 µM (inactive) | > 100 µM (inactive) | > 100 µM (inactive) | > 100 µM (inactive) | > 100 µM (inactive) | > 100 µM (inactive) | > 100 µM (inactive) | > 100 µM (inactive) | > 100 µM (inactive) | > 100 µM (inactive) | > 100 µM (inactive) | > 100 µM (inactive) | > 100 µM (inactive) | > 100 µM (inactive) | – |
| COCC1N=C(c2cc(OC)c(OC)c(OC)c2-c2cc3c(cc2[C@@H](C)O)OCO3)O[C@H]1c1ccccc1 (some centres undefined) | > 94.4 µM (inactive) | > 100 µM (inactive) | 36.8 µM (inactive) | > 100 µM (inactive) | > 100 µM (inactive) | 86.3 µM (inactive) | > 100 µM (inactive) | – | > 100 µM (inactive) | 36.2 µM (inactive) | 37.6 µM (inactive) | > 73.8 µM (inactive) | > 66.2 µM (inactive) | > 68.4 µM (inactive) | 97.5 µM (inactive) | 73.1 µM (inactive) | 25.9 µM (inactive) | > 45.2 µM (inactive) | 53.2 µM (inactive) | > 100 µM (inactive) |
